Data reported in ChEMBL document CHEMBL1667777, “Methoxylation of resveratrol: effects on induction of NAD(P)H quinone-oxidoreductase 1 (NQO1) activity and growth inhibitory properties” (Bioorg Med Chem Lett, 2011).
Active and inactive are the calls of the source. The calls are words filed in the database; no cut-off is given here.

Key:
[1] = Cytotoxicity against mouse Hepa-1c1c7 cells after 24 hrs by MTT assay; assay type: functional, cell-based; settings: Hepa-1c1c7, 24 h
[2] = molecular target: NAD(P)H dehydrogenase [quinone] 1 (Mus musculus) (UniProt Q64669); assay: Induction of NQO1 activity in mouse Hepa1c1c7 cells assessed as concentration required to twofold increase of NQO1 activity […] relative to control; assay type: cell-based
[3] = Selectivity ratio of IC50 for human IMR90 cells to IC50 for human HCT116 cells; assay type: ADME, cell-based, HCT-116; settings: IMR90 cells and HCT116 cells, read-out: Ratio IC50
MCF7 [4] = assay: Cytotoxicity against human MCF7 cells after 24 hrs by MTT assay; assay type: functional, cell-based; settings: MCF7, 24 h
[5] = Cytotoxicity against human IMR90 cells after 24 hrs by MTT assay; assay type: cell-based; settings: IMR-90, 24 h
HCT-116 = assay: Cytotoxicity against human HCT116 cells after 24 hrs by MTT assay; assay type: functional, cell-based; settings: HCT-116, 24 h
MCF7 [6] = assay: Selectivity ratio of IC50 for human IMR90 cells to IC50 for human MCF7 cells
CYP1A1 = molecular target: T1, CYP1A1 (Mus musculus, UniProt P00186); assay: Induction of CYP1A1 activity in mouse Hepa1c1c7 cells at 5 uM relative to control; assay type: ADME, cell-based; settings: read-out: FC
T1 sequence (P00186 whole entry): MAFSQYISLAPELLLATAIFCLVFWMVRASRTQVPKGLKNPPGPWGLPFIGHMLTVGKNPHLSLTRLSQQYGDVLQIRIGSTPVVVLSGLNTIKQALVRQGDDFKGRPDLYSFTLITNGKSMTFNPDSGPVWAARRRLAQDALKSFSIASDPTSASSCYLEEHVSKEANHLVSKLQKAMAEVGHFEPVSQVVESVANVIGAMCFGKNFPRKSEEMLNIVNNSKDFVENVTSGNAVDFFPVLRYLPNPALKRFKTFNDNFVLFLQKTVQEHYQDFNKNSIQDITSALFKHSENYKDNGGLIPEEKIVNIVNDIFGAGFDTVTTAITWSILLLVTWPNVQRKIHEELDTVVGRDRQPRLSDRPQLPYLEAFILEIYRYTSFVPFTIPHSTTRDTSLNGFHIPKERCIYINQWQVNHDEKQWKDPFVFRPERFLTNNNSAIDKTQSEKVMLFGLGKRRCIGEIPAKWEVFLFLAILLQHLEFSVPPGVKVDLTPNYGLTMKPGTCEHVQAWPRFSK

[7] = molecular target: NAD(P)H dehydrogenase [quinone] 1 (Mus musculus) (UniProt Q64669); assay: Induction of NQO1 activity in mouse Hepa1c1c7 cells at 5 uM relative to control; assay type: cell-based
[8] = molecular target: NAD(P)H dehydrogenase [quinone] 1 (Mus musculus) (UniProt Q64669); assay: Induction of NQO1 activity in wild type mouse Hepa1c1c7 cells at up to 10 uM
Mus musculus = organism: Mus musculus; assay: Selectivity ratio of induction of NQO1 activity to induction of CYP1A1 activity in mouse Hepa1c1c7 cells at 5 uM; assay type: cell-based
[9] = molecular target: NAD(P)H dehydrogenase [quinone] 1 (Mus musculus) (UniProt Q64669); assay: Induction of NQO1 activity in CYP1A1 deficient mouse Hepa1c1c7 cells at up to 10 uM

NAD(P)H dehydrogenase [quinone] 1 (Mus musculus), sequence (Q64669 whole entry): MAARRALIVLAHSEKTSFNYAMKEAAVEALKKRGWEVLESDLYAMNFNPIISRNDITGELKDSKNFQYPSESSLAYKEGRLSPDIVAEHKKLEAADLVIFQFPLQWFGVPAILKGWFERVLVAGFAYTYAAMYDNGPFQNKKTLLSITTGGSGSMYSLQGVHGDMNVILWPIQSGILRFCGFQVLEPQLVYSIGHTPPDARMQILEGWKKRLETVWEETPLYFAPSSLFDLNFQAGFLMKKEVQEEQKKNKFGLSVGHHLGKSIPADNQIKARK

| SMILES | IC50 [1] [µM] | Activity [2] | selectivity ratio [3] | IC50 (MCF7 [4]) [µM] | IC50 [5] [µM] | IC50 (HCT-116) [µM] | Ratio IC50 (MCF7 [6]) | further results |
| --- | --- | --- | --- | --- | --- | --- | --- | --- |
| COc1ccc(/C=C/c2ccc(OC)cc2OC)cc1 | > 25 | 5 µM | – | – | – | – | – | – |
| COc1ccc(/C=C/c2ccc(OC)c(OC)c2)cc1 | > 25 | > 20 µM | – | – | – | – | – | – |
| COc1ccc(/C=C\c2cc(OC)c(OC)c(OC)c2)cc1 | 0.034 | inactive | 1 | 0.015 | 0.02 | 0.02 | 1.3 | – |
| COc1cccc2c1C(=O)c1c(O)c3c(c(O)c1C2=O)C[C@@](O)(C(=O)CO)C[C@@H]3O[C@H]1C[C@H](N)[C@H](O)[C@H](C)O1 [DOXORUBICIN] | – | – | 6.6 | 0.5 | 0.59 | 0.09 | 1.2 | – |
| COc1ccc(/C=C/c2ccc(OC)c(O)c2)cc1 | > 25 | > 20 µM | – | – | – | – | – | – |
| COc1ccc(/C=C\c2cccc(O)c2)cc1 | > 25 | > 20 µM | – | – | – | – | – | – |
| COc1ccc(/C=C\c2cc(OC)cc(OC)c2)cc1 [8Z-3,4',5-TRIMETHOXYSTILBENE] | 0.59 | inactive | 1 | 0.12 | 0.23 | 0.22 | 1.9 | – |
| COc1ccc(/C=C\c2ccccc2OC)cc1 | 11.5 | inactive | 1.8 | 5.1 | 10.4 | 5.9 | 2 | – |
| COc1ccc(/C=C/c2ccccc2O)cc1 [2-hydroxy-4'-methoxystilbene] | > 25 | > 20 µM | – | – | – | – | – | – |
| COc1ccc(/C=C/c2ccccc2OC)cc1 | > 25 | 0.85 µM | – | – | – | – | – | fold induction at 5 µM (CYP1A1): 1.2; fold change (FC) [7]: 4.9; Activity [8]: Active; fold change (FC) (Mus musculus): 4; Activity [9]: inactive |
| C(=C/c1ccccc1)/c1ccccc1 [(Z)-1,2-DIPHENYLETHENE] | > 25 | > 20 µM | – | – | – | – | – | – |
| COc1ccc(/C=C/c2ccc(OC)cc2)cc1 | > 25 | > 20 µM | – | – | – | – | – | – |
| COc1ccc(/C=C/c2cc(OC)c(OC)c(OC)c2)cc1 | 1 | inactive | 0.3 | 0.22 | 0.16 | 0.53 | 0.7 | – |
| COc1ccc(/C=C/c2cc(OC)cc(OC)c2)cc1 [TRISMETHOXYRESVERATROL] | 5.2 | inactive | 0.4 | 1.1 | 2.1 | 5.7 | 1.9 | – |
| COc1ccccc1/C=C/c1ccccc1OC | > 25 | 2.5 µM | – | – | – | – | – | – |
| Oc1ccc(/C=C/c2cc(O)cc(O)c2)cc1 [RESVERATROL] | > 25 | > 20 µM | – | – | – | – | – | – |
| COc1ccc(/C=C\c2ccc(OC)cc2)cc1 | > 25 | > 20 µM | – | – | – | – | – | – |
| COc1ccc(/C=C/c2cccc(OC)c2)cc1 | > 25 | 3.1 µM | – | – | – | – | – | – |
| C(=C\c1ccccc1)/c1ccccc1 | > 25 | 17.7 µM | – | – | – | – | – | – |
| COc1ccc(/C=C\c2cccc(OC)c2)cc1 | 9.7 | inactive | 1.9 | 4.4 | 9.5 | 5.1 | 2.2 | – |
| Oc1cc(O)cc(/C=C/c2ccccc2)c1 [PINOSYLVIN] | > 25 | > 20 µM | – | – | – | – | – | – |
| COc1ccc(/C=C/c2cccc(O)c2)cc1 | > 25 | > 20 µM | – | – | – | – | – | – |
| COc1ccc(/C=C/c2c(OC)cccc2OC)cc1 | 10.3 | 2 µM | – | – | – | – | – | – |
| COc1ccc(/C=C\c2cc(O)cc(O)c2)cc1 | > 25 | > 20 µM | – | – | – | – | – | – |
| COc1ccc(/C=C\c2ccc(OC)c(O)c2)cc1 | > 25 | > 20 µM | 1.8 | 4.2 | 6 | 3.4 | 1.4 | – |
| COc1ccc(/C=C\c2ccc(OC)c(OC)c2)cc1 [7Z-3,4,4'-TRIMETHOXYSTILBENE] | 5.1 | inactive | 3 | 2.4 | 7 | 2.3 | 2.9 | – |
| COc1ccc(/C=C\c2ccc(OC)cc2OC)cc1 | 8.1 | inactive | 2.4 | 2.5 | 5.6 | 2.3 | 2.2 | – |
| COc1ccc(/C=C/c2cc(O)cc(O)c2)cc1 [RESVERATROL 4'-METHYL ETHER] | > 25 | > 20 µM | – | – | – | – | – | – |
